Drawing on US20090227575A1, “7H-PYRROLO[2,3-H]QUINAZOLINE COMPOUNDS, THEIR USE AS mTOR KINASE AND PI3 KINASE INHIBITORS, AND THEIR [sequence]” (Wyeth, priority 2008, published 2009), this text covers IC50 for 31 compounds.

Read-outs that look alike come from different tables or passages of the source.

The target of one test is human SMG-1 (hSMG-1) (Homo sapiens, UniProt Q96Q15). In words: hSMG-1 kinase assay (DELFIA). It is filed as biochemical. Particulars: read-out: hSMG1 IC50.
The target in the next test is Human mTOR (Homo sapiens, UniProt P42345). Description: mTOR kinase assay (DELFIA format, purified enzyme). Type of test: biochemical. More on the design: FLAG.

Sequence of human SMG-1 (hSMG-1) (Q96Q15 whole entry): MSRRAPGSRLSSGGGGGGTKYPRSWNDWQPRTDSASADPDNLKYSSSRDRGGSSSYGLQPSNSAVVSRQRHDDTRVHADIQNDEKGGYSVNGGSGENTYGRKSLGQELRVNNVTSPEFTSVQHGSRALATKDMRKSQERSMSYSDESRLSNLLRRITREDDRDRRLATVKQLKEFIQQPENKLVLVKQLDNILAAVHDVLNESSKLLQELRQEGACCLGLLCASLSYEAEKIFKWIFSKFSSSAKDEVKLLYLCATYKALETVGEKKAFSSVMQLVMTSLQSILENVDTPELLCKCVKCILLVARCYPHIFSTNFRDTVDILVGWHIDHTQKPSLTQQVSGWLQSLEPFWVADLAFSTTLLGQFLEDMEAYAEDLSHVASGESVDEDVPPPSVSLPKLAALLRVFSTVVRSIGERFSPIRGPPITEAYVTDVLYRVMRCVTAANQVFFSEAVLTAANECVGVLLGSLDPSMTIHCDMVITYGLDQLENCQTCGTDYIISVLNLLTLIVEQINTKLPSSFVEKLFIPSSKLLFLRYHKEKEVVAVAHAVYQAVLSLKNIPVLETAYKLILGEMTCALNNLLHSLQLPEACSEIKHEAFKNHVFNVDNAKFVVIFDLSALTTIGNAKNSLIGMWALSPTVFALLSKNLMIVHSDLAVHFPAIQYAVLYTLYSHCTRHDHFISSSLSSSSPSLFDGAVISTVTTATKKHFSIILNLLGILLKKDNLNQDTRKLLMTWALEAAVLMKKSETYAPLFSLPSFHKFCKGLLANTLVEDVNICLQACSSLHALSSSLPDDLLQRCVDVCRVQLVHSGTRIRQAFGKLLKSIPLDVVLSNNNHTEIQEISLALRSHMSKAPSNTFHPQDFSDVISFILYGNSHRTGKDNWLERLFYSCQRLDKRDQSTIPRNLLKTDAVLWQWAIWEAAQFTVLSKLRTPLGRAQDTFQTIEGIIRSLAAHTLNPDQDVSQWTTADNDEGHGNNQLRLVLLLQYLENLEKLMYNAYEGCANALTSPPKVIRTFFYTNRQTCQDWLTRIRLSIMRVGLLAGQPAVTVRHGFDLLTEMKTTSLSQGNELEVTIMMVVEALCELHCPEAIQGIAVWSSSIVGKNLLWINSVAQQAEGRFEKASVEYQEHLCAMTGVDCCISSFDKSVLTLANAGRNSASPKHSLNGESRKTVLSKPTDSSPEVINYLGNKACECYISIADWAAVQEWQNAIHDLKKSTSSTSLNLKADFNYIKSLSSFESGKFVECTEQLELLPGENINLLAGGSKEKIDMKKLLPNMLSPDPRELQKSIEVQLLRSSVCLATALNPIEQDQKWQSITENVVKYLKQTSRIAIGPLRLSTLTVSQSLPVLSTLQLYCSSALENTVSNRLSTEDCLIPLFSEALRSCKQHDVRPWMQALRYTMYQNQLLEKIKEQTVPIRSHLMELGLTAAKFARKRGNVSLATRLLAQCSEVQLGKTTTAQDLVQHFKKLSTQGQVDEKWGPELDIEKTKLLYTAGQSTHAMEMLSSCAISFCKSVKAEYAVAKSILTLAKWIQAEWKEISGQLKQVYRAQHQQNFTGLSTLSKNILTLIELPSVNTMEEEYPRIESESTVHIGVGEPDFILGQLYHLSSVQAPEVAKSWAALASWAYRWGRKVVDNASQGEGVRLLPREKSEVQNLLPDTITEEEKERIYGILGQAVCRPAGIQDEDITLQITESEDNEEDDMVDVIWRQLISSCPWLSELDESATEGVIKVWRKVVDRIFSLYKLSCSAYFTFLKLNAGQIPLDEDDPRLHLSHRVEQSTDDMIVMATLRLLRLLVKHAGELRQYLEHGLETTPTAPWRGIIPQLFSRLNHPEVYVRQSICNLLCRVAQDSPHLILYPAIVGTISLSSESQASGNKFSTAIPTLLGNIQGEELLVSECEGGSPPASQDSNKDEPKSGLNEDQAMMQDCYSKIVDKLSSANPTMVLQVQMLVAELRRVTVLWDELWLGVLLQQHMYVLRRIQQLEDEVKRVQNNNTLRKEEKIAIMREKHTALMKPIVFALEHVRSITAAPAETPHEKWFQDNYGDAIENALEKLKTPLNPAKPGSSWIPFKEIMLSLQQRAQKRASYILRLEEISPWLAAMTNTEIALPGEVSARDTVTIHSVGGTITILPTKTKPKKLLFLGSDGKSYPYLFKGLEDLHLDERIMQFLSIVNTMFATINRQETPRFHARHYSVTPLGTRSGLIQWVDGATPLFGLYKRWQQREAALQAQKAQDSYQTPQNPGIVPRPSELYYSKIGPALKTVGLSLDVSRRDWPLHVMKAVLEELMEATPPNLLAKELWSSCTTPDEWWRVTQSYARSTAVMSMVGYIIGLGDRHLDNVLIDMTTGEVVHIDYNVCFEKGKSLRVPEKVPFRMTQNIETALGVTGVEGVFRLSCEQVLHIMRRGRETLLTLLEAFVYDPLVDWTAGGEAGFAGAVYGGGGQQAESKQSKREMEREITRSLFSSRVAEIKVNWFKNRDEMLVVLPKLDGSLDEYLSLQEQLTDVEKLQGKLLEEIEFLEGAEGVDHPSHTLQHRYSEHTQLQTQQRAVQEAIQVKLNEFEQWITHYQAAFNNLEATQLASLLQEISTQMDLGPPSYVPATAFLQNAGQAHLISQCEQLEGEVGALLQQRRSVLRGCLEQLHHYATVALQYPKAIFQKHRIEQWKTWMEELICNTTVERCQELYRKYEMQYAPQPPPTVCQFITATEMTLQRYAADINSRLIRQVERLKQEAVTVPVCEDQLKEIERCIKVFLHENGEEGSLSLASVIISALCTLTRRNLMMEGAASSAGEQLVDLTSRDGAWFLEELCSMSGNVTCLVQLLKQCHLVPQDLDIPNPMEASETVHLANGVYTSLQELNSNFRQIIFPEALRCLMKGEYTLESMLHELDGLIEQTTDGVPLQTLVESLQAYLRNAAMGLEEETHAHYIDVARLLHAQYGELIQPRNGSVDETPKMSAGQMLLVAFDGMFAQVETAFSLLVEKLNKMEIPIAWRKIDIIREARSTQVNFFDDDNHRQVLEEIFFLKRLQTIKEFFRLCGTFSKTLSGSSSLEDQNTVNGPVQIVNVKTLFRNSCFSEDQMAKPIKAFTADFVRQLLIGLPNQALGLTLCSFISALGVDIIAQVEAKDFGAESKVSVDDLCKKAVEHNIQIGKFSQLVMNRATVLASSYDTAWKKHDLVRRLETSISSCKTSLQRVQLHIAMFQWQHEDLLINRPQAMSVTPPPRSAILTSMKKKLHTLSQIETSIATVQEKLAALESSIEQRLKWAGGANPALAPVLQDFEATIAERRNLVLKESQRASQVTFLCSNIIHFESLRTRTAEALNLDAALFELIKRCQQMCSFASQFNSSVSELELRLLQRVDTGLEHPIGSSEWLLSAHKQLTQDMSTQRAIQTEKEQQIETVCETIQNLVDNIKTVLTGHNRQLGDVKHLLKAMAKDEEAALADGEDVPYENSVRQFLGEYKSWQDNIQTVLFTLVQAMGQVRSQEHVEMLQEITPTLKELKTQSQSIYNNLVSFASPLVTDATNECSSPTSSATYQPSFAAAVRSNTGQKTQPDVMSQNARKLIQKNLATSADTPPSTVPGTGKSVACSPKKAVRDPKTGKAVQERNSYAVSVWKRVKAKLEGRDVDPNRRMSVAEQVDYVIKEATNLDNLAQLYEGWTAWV

One may read the IC50 as the midpoint of a concentration-inhibition curve. In the case of `CS(=O)(=O)n1ccc2c3nc(-c4ccc(NC(=O)C5CC5)cc4)nc(N4CCOCC4)c3ccc21` [Example 87, N-{4-[7-(methylsulfonyl)-4-morpholin-4-yl-7H-pyrrolo[2,3-h]quinazolin-2-yl]phenyl}cyclopropanecarboxamide], the IC50 at human SMG-1 (hSMG-1) is 5.6 µM.

Take `CCCC(=O)Nc1ccc(-c2nc(N3CCOCC3)c3ccc4c(ccn4S(C)(=O)=O)c3n2)cc1` [Example 88, N-{4-[7-(methylsulfonyl)-4-morpholin-4-yl-7H-pyrrolo[2,3-h]quinazolin-2-yl]phenyl}butanamide]: the IC50 at human SMG-1 (hSMG-1) is more than 20 µM.

For the compound `COC(=O)Nc1ccc(-c2nc(N3CCOCC3)c3ccc4c(ccn4S(C)(=O)=O)c3n2)cc1` [Example 90, methyl {4-[7-(methylsulfonyl)-4-morpholin-4-yl-7H-pyrrolo[2,3-h]quinazolin-2-yl]phenyl}carbamate], at human SMG-1 (hSMG-1), the IC50 worked out at 5.6 µM.

Regarding `CCC(=O)Nc1ccc(-c2nc(N3CCOCC3)c3ccc4c(ccn4S(C)(=O)=O)c3n2)cc1` [Example 91, N-{4-[7-(methylsulfonyl)-4-morpholin-4-yl-7H-pyrrolo[2,3-h]quinazolin-2-yl]phenyl}propanamide], at human SMG-1 (hSMG-1), the IC50 came out at 6.1 µM.

Take `CC(=O)Nc1ccc(-c2nc(N3CCOCC3)c3ccc4c(ccn4S(C)(=O)=O)c3n2)cc1` [Example 92, N-{4-[7-(methylsulfonyl)-4-morpholin-4-yl-7H-pyrrolo[2,3-h]quinazolin-2-yl]phenyl}acetamide]: the IC50 on human SMG-1 (hSMG-1) came to 5.25 µM.

In the case of `CCOC(=O)Nc1ccc(-c2nc(N3CCOCC3)c3ccc4c(ccn4CCN(C)C)c3n2)cc1` [Example 93, ethyl (4-{7-[2-(dimethylamino)ethyl]-4-morpholin-4-yl-7H-pyrrolo[2,3-h]quinazolin-2-yl}phenyl)carbamate], the IC50 at human SMG-1 (hSMG-1) was more than 20 µM.

Take `CCNC(=O)Nc1ccc(-c2nc(N3CCOCC3)c3ccc4c(ccn4CCN(C)C)c3n2)cc1` [Example 94, 1-(4-{7-[2-(dimethylamino)ethyl]-4-morpholin-4-yl-7H-pyrrolo[2,3-h]quinazolin-2-yl}phenyl)-3-ethylurea]: the IC50 at human SMG-1 (hSMG-1) was 2 µM.

For the compound `CN(C)CCn1ccc2c3nc(-c4ccc(NC(=O)Nc5ccccc5)cc4)nc(N4CCOCC4)c3ccc21` [Example 95, 1-(4-{7-[2-(dimethylamino)ethyl]-4-morpholin-4-yl-7H-pyrrolo[2,3-h]quinazolin-2-yl}phenyl)-3-phenylurea], the results for the IC50 at human SMG-1 (hSMG-1) and on Human mTOR (read-out: TOR Kinase IC50) were 1.8 µM and 0.05 µM, respectively.

Regarding `CN(C)CCn1ccc2c3nc(-c4ccc(NC(=O)C5CC5)cc4)nc(N4CCOCC4)c3ccc21` [Example 96, N-(4-{7-[2-(dimethylamino)ethyl]-4-morpholin-4-yl-7H-pyrrolo[2,3-h]quinazolin-2-yl}phenyl)cyclopropanecarboxamide], the figures for the IC50 at human SMG-1 (hSMG-1) and on Human mTOR (read-out: TOR Kinase IC50) were more than 20 µM and 5.25 µM, respectively.

For the compound `CCCC(=O)Nc1ccc(-c2nc(N3CCOCC3)c3ccc4c(ccn4CCN(C)C)c3n2)cc1` [Example 97, N-(4-{7-[2-(dimethylamino)ethyl]-4-morpholin-4-yl-7H-pyrrolo[2,3-h]quinazolin-2-yl}phenyl)butanamide], the IC50 is more than 20 µM at human SMG-1 (hSMG-1) and 6.2 µM at Human mTOR (read-out: TOR Kinase IC50).

`COC(=O)Nc1ccc(-c2nc(N3CCOCC3)c3ccc4c(ccn4CCN(C)C)c3n2)cc1` [Example 98, methyl (4-{7-[2-(dimethylamino)ethyl]-4-morpholin-4-yl-7H-pyrrolo[2,3-h]quinazolin-2-yl}phenyl)carbamate]: the IC50 at human SMG-1 (hSMG-1) is more than 20 µM; at Human mTOR (read-out: TOR Kinase IC50) it was 2 µM.

`CC(C)NC(=O)Nc1ccc(-c2nc(N3CCOCC3)c3ccc4c(ccn4C)c3n2)cc1` [Example 99, 1-(1-methylethyl)-3-[4-(7-methyl-4-morpholin-4-yl-7H-pyrrolo[2,3-h]quinazolin-2-yl)phenyl]urea]: the IC50 came out at 14.5 µM at human SMG-1 (hSMG-1) and 0.215 µM on Human mTOR (read-out: TOR Kinase IC50).

Turning to `Cn1ccc2c3nc(-c4ccc(NC(=O)NCC5CC5)cc4)nc(N4CCOCC4)c3ccc21` [Example 100, 1-(cyclopropylmethyl)-3-[4-(7-methyl-4-morpholin-4-yl-7H-pyrrolo[2,3-h]quinazolin-2-yl)phenyl]urea], the IC50 was found to be 16 µM on human SMG-1 (hSMG-1) and 0.5 µM on Human mTOR (read-out: TOR Kinase IC50).

Regarding `COCCNC(=O)Nc1ccc(-c2nc(N3CCOCC3)c3ccc4c(ccn4C)c3n2)cc1` [Example 101, 1-(2-methoxyethyl)-3-[4-(7-methyl-4-morpholin-4-yl-7H-pyrrolo[2,3-h]quinazolin-2-yl)phenyl]urea], the IC50 at human SMG-1 (hSMG-1) is more than 20 µM; on Human mTOR (read-out: TOR Kinase IC50), 1.8 µM.

With `Cn1ccc2c3nc(-c4ccc(NC(=O)NCC5CCCO5)cc4)nc(N4CCOCC4)c3ccc21` (stereo not drawn) [Example 102, 1-[4-(7-methyl-4-morpholin-4-yl-7H-pyrrolo[2,3-h]quinazolin-2-yl)phenyl]-3-(tetrahydrofuran-2-ylmethyl)urea], the IC50 at human SMG-1 (hSMG-1) was more than 17 µM; on Human mTOR (read-out: TOR Kinase IC50), 1.5 µM.

As to `Cn1ccc2c3nc(-c4ccc(NC(=O)NCCCN5CCCC5)cc4)nc(N4CCOCC4)c3ccc21` [Example 104], the IC50 at human SMG-1 (hSMG-1) is more than 20 µM; at Human mTOR (read-out: TOR Kinase IC50), 2.4 µM.

For the compound `Cn1ccc2c3nc(-c4ccc(NC(=O)NC5CCCC5)cc4)nc(N4CCOCC4)c3ccc21` [Example 105, 1-cyclopentyl-3-[4-(7-methyl-4-morpholin-4-yl-7H-pyrrolo[2,3-h]quinazolin-2-yl)phenyl]urea], the figures for the IC50 on human SMG-1 (hSMG-1) and on Human mTOR (read-out: TOR Kinase IC50) were more than 20 µM and 2.05 µM, respectively.

Consider `Cn1ccc2c3nc(-c4ccc(NC(=O)NC5CCC5)cc4)nc(N4CCOCC4)c3ccc21` [Example 106, 1-cyclobutyl-3-[4-(7-methyl-4-morpholin-4-yl-7H-pyrrolo[2,3-h]quinazolin-2-yl)phenyl]urea], for which the IC50 at human SMG-1 (hSMG-1) came to 16.5 µM; at Human mTOR (read-out: TOR Kinase IC50), 1.5 µM.

Regarding `Cn1ccc2c3nc(-c4ccc(NC(=O)NC5CCCCC5)cc4)nc(N4CCOCC4)c3ccc21` [Example 108, 1-cyclohexyl-3-[4-(7-methyl-4-morpholin-4-yl-7H-pyrrolo[2,3-h]quinazolin-2-yl)phenyl]urea], the IC50 on human SMG-1 (hSMG-1) was more than 20 µM; at Human mTOR (read-out: TOR Kinase IC50), 7.25 µM.

Turning to `CCCOC(=O)Nc1ccc(-c2nc(N3CCOCC3)c3ccc4c(ccn4S(C)(=O)=O)c3n2)cc1` [Example 109, propyl {4-[7-(methylsulfonyl)-4-morpholin-4-yl-7H-pyrrolo[2,3-h]quinazolin-2-yl]phenyl}carbamate], the figures for the concentration for half-maximal inhibition (IC50) at human SMG-1 (hSMG-1) and at Human mTOR (read-out: TOR Kinase IC50) were more than 20 µM and 2.05 µM, respectively.

Take `CC(=O)Nc1ccc(-c2nc(N3CCOCC3)c3ccc4c(ccn4CCN(C)C)c3n2)cc1` [Example 112, N-(4-{7-[2-(dimethylamino)ethyl]-4-morpholin-4-yl-7H-pyrrolo[2,3-h]quinazolin-2-yl}phenyl)acetamide]: the IC50 is more than 20 µM on human SMG-1 (hSMG-1) and 2.8 µM at Human mTOR (read-out: TOR Kinase IC50).

Turning to `CC(=O)c1cccc(NC(=O)Nc2ccc(-c3nc(N4CCOCC4)c4ccc5c(ccn5C)c4n3)cc2)c1` [Example 114, 1-(3-acetylphenyl)-3-[4-(7-methyl-4-morpholin-4-yl-7H-pyrrolo[2,3-h]quinazolin-2-yl)phenyl]urea], the IC50 was 10.5 µM on human SMG-1 (hSMG-1) and 5.55 µM against Human mTOR.

Consider `CC(=O)c1ccc(NC(=O)Nc2ccc(-c3nc(N4CCOCC4)c4ccc5c(ccn5C)c4n3)cc2)cc1` [Example 115, 1-(4-acetylphenyl)-3-[4-(7-methyl-4-morpholin-4-yl-7H-pyrrolo[2,3-h]quinazolin-2-yl)phenyl]urea], for which the IC50 was 4.25 µM at human SMG-1 (hSMG-1) and 0.47 µM at Human mTOR (read-out: TOR Kinase IC50).

For `Cc1noc(C)c1NC(=O)Nc1ccc(-c2nc(N3CCOCC3)c3ccc4c(ccn4C)c3n2)cc1` [Example 116, 1-(3,5-dimethylisoxazol-4-yl)-3-[4-(7-methyl-4-morpholin-4-yl-7H-pyrrolo[2,3-h]quinazolin-2-yl)phenyl]urea], the IC50 on human SMG-1 (hSMG-1) is more than 20 µM; on Human mTOR (read-out: TOR Kinase IC50), 1.27 µM.

Regarding `Cn1ccc2c3nc(-c4ccc(NC(=O)NC5CCS(=O)(=O)C5)cc4)nc(N4CCOCC4)c3ccc21` (stereo not drawn) [Example 117, 1-(1,1-dioxidotetrahydrothiophen-3-yl)-3-[4-(7-methyl-4-morpholin-4-yl-7H-pyrrolo[2,3-h]quinazolin-2-yl)phenyl]urea], the IC50 at human SMG-1 (hSMG-1) was more than 20 µM; at Human mTOR (read-out: TOR Kinase IC50), 0.6 µM.

For the compound `Cn1ccc2c3nc(-c4ccc(NC(=O)NCCF)cc4)nc(N4CCOCC4)c3ccc21` [Example 118, 1-(2-fluoroethyl)-3-[4-(7-methyl-4-morpholin-4-yl-7H-pyrrolo[2,3-h]quinazolin-2-yl)phenyl]urea], the figures for the IC50 on human SMG-1 (hSMG-1) and at Human mTOR (read-out: TOR Kinase IC50) were 15 µM and 0.625 µM, respectively.

`Cn1ccc2c3nc(-c4ccc(NC(=O)NCC(F)(F)F)cc4)nc(N4CCOCC4)c3ccc21` [Example 119, 1-[4-(7-methyl-4-morpholin-4-yl-7H-pyrrolo[2,3-h]quinazolin-2-yl)phenyl]-3-(2,2,2-trifluoroethyl)urea]: the IC50 turned out to be 6.5 µM at human SMG-1 (hSMG-1) and 1.26 µM at Human mTOR (read-out: TOR Kinase IC50).

With `Cn1ccc2c3nc(-c4ccc(NC(=O)NCCc5ccncc5)cc4)nc(N4CCOCC4)c3ccc21` [Example 120, 1-[4-(7-methyl-4-morpholin-4-yl-7H-pyrrolo[2,3-h]quinazolin-2-yl)phenyl]-3-(2-pyridin-4-ylethyl)urea], the IC50 at human SMG-1 (hSMG-1) was found to be 3.3 µM; on Human mTOR (read-out: TOR Kinase IC50), 0.625 µM.

For `Cn1ccc2c3nc(-c4cccc(NC(=O)Nc5ccncc5)c4)nc(N4CCOCC4)c3ccc21` [Example 122, 1-[3-(7-methyl-4-morpholin-4-yl-7H-pyrrolo[2,3-h]quinazolin-2-yl)phenyl]-3-pyridin-4-ylurea], the IC50 at human SMG-1 (hSMG-1) is 6.5 µM.

Take `Cn1ccc2c3nc(-c4cccc(NC(=O)Nc5cccnc5)c4)nc(N4CCOCC4)c3ccc21` [Example 123, 1-[3-(7-methyl-4-morpholin-4-yl-7H-pyrrolo[2,3-h]quinazolin-2-yl)phenyl]-3-pyridin-3-ylurea]: the IC50 on human SMG-1 (hSMG-1) was found to be 5.5 µM; on Human mTOR (read-out: TOR Kinase IC50) it was 2.55 µM.

For `CCOC(=O)Nc1cccc(-c2nc(N3CCOCC3)c3ccc4c(ccn4C)c3n2)c1` [Example 124, ethyl [3-(7-methyl-4-morpholin-4-yl-7H-pyrrolo[2,3-h]quinazolin-2-yl)phenyl]carbamate], the figures for the IC50 on human SMG-1 (hSMG-1) and at Human mTOR (read-out: TOR Kinase IC50) were more than 20 µM and 1.9 µM, respectively.
